Assay results: ChEMBL document CHEMBL1201862, “PubChem BioAssay data set” (2004)
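How tested: cells in 96-well plates exposed to compound for 48 hours at five concentrations. GI50 marks 50% less growth.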 Activity calls are given as the source filed them. Rule as the data show it: active = GI50 up to about 1.1 µM and inactive = higher.

Key:
Assay in all cases: NCI tumour cell line growth inhibition, 48 h
CCRF-CEM = test system: CCRF-CEM
OVCAR-4 = test system: OVCAR-4
NCI-H522 = test system: NCI-H522
M14 = test system: M14
OVCAR-5 = test system: OVCAR-5
COLO 205 = test system: COLO 205
SW-620 = test system: SW-620
K562 = test system: K562
OVCAR-8 = test system: OVCAR-8
SK-MEL-5 = test system: SK-MEL-5
RPMI-8226 = test system: RPMI-8226
SF-295 = test system: SF-295
EKVX = test system: EKVX
TK-10 = test system: TK-10
IGROV-1 = test system: IGROV-1
A549 = test system: A549
SK-OV-3 = test system: SK-OV-3
SNB-19 = test system: SNB-19

Measured: GI50

C[C@@]12[Se]c3ccccc3[C@]1(C)[Se]c1ccccc12
inactive: CCRF-CEM 4.39 µM | OVCAR-4 68.2 µM | NCI-H522 4.05 µM | M14 > 100 µM | OVCAR-5 > 100 µM | COLO 205 3.73 µM | SW-620 3.27 µM | K562 4.17 µM | OVCAR-8 > 100 µM | SK-MEL-5 4.21 µM | RPMI-8226 8.85 µM | SF-295 38.7 µM | EKVX > 100 µM | TK-10 > 100 µM

CCC(C)(O)c1cn(-c2ccc(S(=O)(=O)O)cc2)nn1 (centres undefined)
inactive: CCRF-CEM > 100 µM | IGROV-1 > 100 µM | OVCAR-4 > 100 µM | NCI-H522 > 100 µM | A549 > 100 µM | M14 > 100 µM | OVCAR-5 > 100 µM | COLO 205 > 100 µM | SW-620 > 100 µM | K562 > 100 µM | SK-OV-3 > 100 µM | SNB-19 > 100 µM | OVCAR-8 > 100 µM | SK-MEL-5 > 100 µM | RPMI-8226 > 100 µM | SF-295 > 100 µM | EKVX > 100 µM | TK-10 > 100 µM

CCCCCCCCCCCCCCCCCC(CCCCCCCCCCCCCCCCC)OP(=O)(O)O
inactive: CCRF-CEM > 100 µM | IGROV-1 > 100 µM | OVCAR-4 > 100 µM | NCI-H522 > 100 µM | A549 > 100 µM | M14 > 100 µM | OVCAR-5 > 100 µM | COLO 205 > 100 µM | SW-620 > 100 µM | K562 > 100 µM | SK-OV-3 > 100 µM | SNB-19 > 100 µM | OVCAR-8 > 100 µM | SK-MEL-5 > 100 µM | RPMI-8226 > 100 µM | SF-295 > 100 µM | EKVX > 100 µM | TK-10 > 100 µM

Cc1ccc(NC(=O)CCc2cc(C(C)(C)C)nc(S)n2)cc1C
inactive: CCRF-CEM > 100 µM | IGROV-1 > 100 µM | NCI-H522 > 100 µM | A549 > 100 µM | M14 > 100 µM | OVCAR-5 > 100 µM | COLO 205 > 100 µM | SW-620 > 100 µM | K562 > 100 µM | SK-OV-3 > 100 µM | SNB-19 > 100 µM | OVCAR-8 > 100 µM | SK-MEL-5 > 100 µM | RPMI-8226 > 100 µM | SF-295 > 100 µM | EKVX > 100 µM | TK-10 > 100 µM

C=CCSC[C@H](NC(=O)COc1ccccc1)C(=O)NC(C(=O)OCc1ccc([N+](=O)[O-])cc1)=C(C)C
inactive: CCRF-CEM 45.5 µM | IGROV-1 > 100 µM | OVCAR-4 62.2 µM | NCI-H522 26.4 µM | A549 62.1 µM | M14 47.9 µM | COLO 205 20.6 µM | K562 44.5 µM | SK-OV-3 > 100 µM | OVCAR-8 63 µM | SK-MEL-5 27.6 µM | RPMI-8226 39.2 µM | SF-295 50.8 µM | EKVX 43.7 µM

Cc1cc(NCCCCCCNc2cc(C)nc3cc(N(C)C)ccc23)c2ccc(N(C)C)cc2n1
inactive: CCRF-CEM 22.3 µM | OVCAR-4 22.6 µM | NCI-H522 10.6 µM | A549 > 10 µM | M14 49.9 µM | OVCAR-5 22.4 µM | SW-620 28.6 µM | K562 3.97 µM | SK-OV-3 12.3 µM | SNB-19 1.67 µM | OVCAR-8 31 µM | SK-MEL-5 18.2 µM | SF-295 28.2 µM | EKVX > 100 µM | TK-10 > 100 µM

COC(=O)c1cc2ccccc2c2nc3ccccc3c(Cl)c12
inactive: CCRF-CEM > 100 µM | IGROV-1 > 100 µM | OVCAR-4 > 100 µM | NCI-H522 32.9 µM | A549 > 100 µM | M14 > 100 µM | COLO 205 > 100 µM | SW-620 > 100 µM | K562 > 100 µM | SNB-19 37.4 µM | OVCAR-8 > 100 µM | SK-MEL-5 > 100 µM | RPMI-8226 > 100 µM | SF-295 > 100 µM | EKVX > 100 µM | TK-10 > 100 µM

CC1=CC[C@@H](C(C)(C)O)C[C@@H]1O
inactive: CCRF-CEM > 5000 µM | IGROV-1 > 5000 µM | OVCAR-4 > 5000 µM | NCI-H522 > 5000 µM | A549 > 5000 µM | M14 > 5000 µM | OVCAR-5 > 5000 µM | COLO 205 > 5000 µM | SW-620 > 5000 µM | K562 > 5000 µM | SK-OV-3 > 5000 µM | SNB-19 > 5000 µM | OVCAR-8 > 5000 µM | SK-MEL-5 > 5000 µM | SF-295 > 5000 µM | EKVX > 5000 µM | TK-10 > 5000 µM
